Values of other authors, collected in patent US20170281596A1, “PHARMACEUTICAL COMBINATION CONTAINING AN ANALGESIC AGENT AND AN ANTISPASMODIC AGENT” (priority 2014, published 2017).

- time at which the plasma concentration level is reached (administered every 6 hours): 24 h
- urinary elimination of Ketorolac and its metabolites (main route of elimination, remainder through feces): 92%
Compound: O=C(c1ccccc1)c1ccc2n1CCC2C(=O)O (centres unmarked) [Ketorolac, carboxylic acid-5-Benzoyl-2,3-dihydro-1H-pyrrolisine-1,2-amino-2-hydroxymethyl-1,3-propanediol]
